What was measured:
Experiment in all cases: viability relative to DMSO control (fraction); higher = less drug effect (more viable cells)
Settings in all cases: 48 h
Palbociclib = compound: CC(=O)c1c(C)c2cnc(Nc3ccc(N4CCNCC4)cn3)nc2n(C2CCCC2)c1=O [Palbociclib]
How it was run: (§1)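 Using 384-well plates with compounds already plated at five concentrations, one well per concentration, 4 × 10^4 primary mononuclear tumour cells were added per well. Cells were Ficoll-isolated from blood or bone marrow or came from processed lymph node, fresh or cryopreserved. They were kept for 48 h at 37 °C and 5% CO2 in RPMI-1640 supplemented with penicillin/streptomycin, L-glutamine and human serum, and viability was read as CellTiter-Glo luminescence relative to the median of 16 inner DMSO wells.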

SGC 0946 = compound: CC(C)N(CCCNC(=O)Nc1ccc(C(C)(C)C)cc1)C[C@H]1O[C@@H](n2cc(Br)c3c(N)ncnc32)[C@H](O)[C@@H]1O [SGC 0946]
How it was run: as §1

Venetoclax = compound: CC1(C)CCC(CN2CCN(c3ccc(C(=O)NS(=O)(=O)c4ccc(NCC5CCOCC5)c([N+](=O)[O-])c4)c(Oc4cnc5[nH]ccc5c4)c3)CC2)=C(c2ccc(Cl)cc2)C1 [Venetoclax]
How it was run: as §1

Navitoclax = compound: CC1(C)CCC(c2ccc(Cl)cc2)=C(CN2CCN(c3ccc(C(=O)NS(=O)(=O)c4ccc(N[C@H](CCN5CCOCC5)CSc5ccccc5)c(S(=O)(=O)C(F)(F)F)c4)cc3)CC2)C1 [Navitoclax]
How it was run: as §1

EPZ-6438 = compound: CCN(c1cc(-c2ccc(CN3CCOCC3)cc2)cc(C(=O)NCc2c(C)cc(C)[nH]c2=O)c1C)C1CCOCC1 [EPZ-6438]
How it was run: as §1

CPI-169 = compound: CCS(=O)(=O)N1CCC([C@@H](C)n2c(C)c(C(=O)NCc3c(OC)cc(C)[nH]c3=O)c3ccccc32)CC1 [CPI-169]
How it was run: as §1

Roscovitine = compound: CC[C@H](CO)Nc1nc(NCc2ccccc2)c2ncn(C(C)C)c2n1 [Roscovitine]
How it was run: as §1

[1] = compound: CCc1ccc(/C=C2/SC(=S)NC2=O)cc1
How it was run: as §1

Etoposide = compound: COc1cc([C@@H]2c3cc4c(cc3[C@@H](O[C@@H]3O[C@@H]5CO[C@@H](C)O[C@H]5[C@H](O)[C@H]3O)[C@H]3COC(=O)[C@H]23)OCO4)cc(OC)c1O [Etoposide]
How it was run: as §1

Tofacitinib = compound: C[C@@H]1CCN(C(=O)CC#N)C[C@@H]1N(C)c1ncnc2[nH]ccc12 [Tofacitinib]
How it was run: as §1

Duvelisib = compound: C[C@H](Nc1ncnc2nc[nH]c12)c1cc2cccc(Cl)c2c(=O)n1-c1ccccc1 [Duvelisib]
How it was run: as §1

Selinexor = compound: O=C(/C=C\n1cnc(-c2cc(C(F)(F)F)cc(C(F)(F)F)c2)n1)NNc1cnccn1 [Selinexor]
How it was run: as §1

[2] = compound: O=C(Nc1ccc2[nH]nc(-c3ccncc3)c2c1)[C@@H]1CCN(CC(=O)N2CCN(c3ccc(-c4ncccn4)cc3)CC2)C1
How it was run: as §1

Thalidomide = compound: O=C1CCC(N2C(=O)c3ccccc3C2=O)C(=O)N1 [Thalidomide]
How it was run: as §1

primary BL patient cells (S005)
viability (Palbociclib; 0.024 µM): 0.948
viability (Palbociclib; 0.12 µM): 1.16
viability (Palbociclib; 0.6 µM): 0.873
viability (Palbociclib; 3 µM): 1.06
viability (Palbociclib; 15 µM): 0.825
viability (SGC 0946; 0.024 µM): 1.08
viability (SGC 0946; 0.12 µM): 1.09
viability (SGC 0946; 0.6 µM): 0.927
viability (SGC 0946; 3 µM): 1.01
viability (SGC 0946; 15 µM): 0.712
viability (Venetoclax; 0.00064 µM): 0.989
viability (Venetoclax; 0.0032 µM): 0.904
viability (Venetoclax; 0.016 µM): 0.944
viability (Venetoclax; 0.08 µM): 0.982
viability (Venetoclax; 0.4 µM): 0.994
viability (Navitoclax; 0.0032 µM): 1.1
viability (Navitoclax; 0.016 µM): 0.999
viability (Navitoclax; 0.08 µM): 1.11
viability (Navitoclax; 0.4 µM): 1.06
viability (Navitoclax; 2 µM): 1.06
viability (EPZ-6438; 0.024 µM): 1.15
viability (EPZ-6438; 0.12 µM): 1.18
viability (EPZ-6438; 0.6 µM): 1.04
viability (EPZ-6438; 3 µM): 1.08
viability (EPZ-6438; 15 µM): 0.967
viability (CPI-169; 0.024 µM): 1.04
viability (CPI-169; 0.12 µM): 1.03
viability (CPI-169; 0.6 µM): 1.12
viability (CPI-169; 3 µM): 1.07
viability (CPI-169; 15 µM): 1.1
viability (Roscovitine; 0.032 µM): 1.01
viability (Roscovitine; 0.16 µM): 1.56
viability (Roscovitine; 0.8 µM): 1.01
viability (Roscovitine; 4 µM): 1.6
viability (Roscovitine; 20 µM): 1.37
viability ([1]; 0.024 µM): 0.918
viability ([1]; 0.12 µM): 0.926
viability ([1]; 0.6 µM): 1.06
viability ([1]; 3 µM): 0.961
viability ([1]; 15 µM): 0.974
viability (Etoposide; 0.032 µM): 1
viability (Etoposide; 0.16 µM): 1.22
viability (Etoposide; 0.8 µM): 1.3
viability (Etoposide; 4 µM): 1.05
viability (Etoposide; 20 µM): 1.12
viability (Tofacitinib; 0.024 µM): 0.965
viability (Tofacitinib; 0.12 µM): 0.944
viability (Tofacitinib; 0.6 µM): 0.917
viability (Tofacitinib; 3 µM): 0.939
viability (Tofacitinib; 15 µM): 0.823
viability (Duvelisib; 0.0016 µM): 1.01
viability (Duvelisib; 0.008 µM): 1.03
viability (Duvelisib; 0.04 µM): 0.93
viability (Duvelisib; 0.2 µM): 0.981
viability (Duvelisib; 1 µM): 0.831
viability (Selinexor; 0.008 µM): 0.977
viability (Selinexor; 0.04 µM): 0.923
viability (Selinexor; 0.2 µM): 0.928
viability (Selinexor; 1 µM): 0.81
viability (Selinexor; 5 µM): 0.743
viability ([2]; 0.008 µM): 1.02
viability ([2]; 0.04 µM): 1.08
viability ([2]; 0.2 µM): 1.02
viability ([2]; 1 µM): 0.993
viability ([2]; 5 µM): 0.935
viability (Thalidomide; 0.032 µM): 0.924
viability (Thalidomide; 0.16 µM): 0.966
viability (Thalidomide; 0.8 µM): 0.953
viability (Thalidomide; 4 µM): 0.98
viability (Thalidomide; 20 µM): 0.919

primary CLL patient cells (S031)
viability (Palbociclib; 0.024 µM): 0.971
viability (Palbociclib; 0.12 µM): 0.805
viability (Palbociclib; 0.6 µM): 0.662
viability (Palbociclib; 3 µM): 0.363
viability (Palbociclib; 15 µM): 0.317
viability (SGC 0946; 0.024 µM): 0.922
viability (SGC 0946; 0.12 µM): 0.942
viability (SGC 0946; 0.6 µM): 0.848
viability (SGC 0946; 3 µM): 0.793
viability (SGC 0946; 15 µM): 0.355
viability (Venetoclax; 0.00064 µM): 0.848
viability (Venetoclax; 0.0032 µM): 0.559
viability (Venetoclax; 0.016 µM): 0.246
viability (Venetoclax; 0.08 µM): 0.0921
viability (Venetoclax; 0.4 µM): 0.0313
viability (Navitoclax; 0.0032 µM): 1.03
viability (Navitoclax; 0.016 µM): 0.762
viability (Navitoclax; 0.08 µM): 0.361
viability (Navitoclax; 0.4 µM): 0.109
viability (Navitoclax; 2 µM): 0.0291
viability (EPZ-6438; 0.024 µM): 0.927
viability (EPZ-6438; 0.12 µM): 0.931
viability (EPZ-6438; 0.6 µM): 0.939
viability (EPZ-6438; 3 µM): 0.915
viability (EPZ-6438; 15 µM): 0.8
viability (CPI-169; 0.024 µM): 0.891
viability (CPI-169; 0.12 µM): 0.931
viability (CPI-169; 0.6 µM): 0.925
viability (CPI-169; 3 µM): 0.895
viability (CPI-169; 15 µM): 0.799
viability (Roscovitine; 0.032 µM): 0.81
viability (Roscovitine; 0.16 µM): 0.872
viability (Roscovitine; 0.8 µM): 0.921
viability (Roscovitine; 4 µM): 0.734
viability (Roscovitine; 20 µM): 0.455
viability ([1]; 0.024 µM): 0.63
viability ([1]; 0.12 µM): 0.764
viability ([1]; 0.6 µM): 0.871
viability ([1]; 3 µM): 0.828
viability ([1]; 15 µM): 0.821
viability (Etoposide; 0.032 µM): 1.03
viability (Etoposide; 0.16 µM): 0.996
viability (Etoposide; 0.8 µM): 0.858
viability (Etoposide; 4 µM): 0.728
viability (Etoposide; 20 µM): 0.329
viability (Tofacitinib; 0.024 µM): 0.904
viability (Tofacitinib; 0.12 µM): 0.88
viability (Tofacitinib; 0.6 µM): 0.858
viability (Tofacitinib; 3 µM): 0.938
viability (Tofacitinib; 15 µM): 0.791
viability (Duvelisib; 0.0016 µM): 0.735
viability (Duvelisib; 0.008 µM): 0.681
viability (Duvelisib; 0.04 µM): 0.561
viability (Duvelisib; 0.2 µM): 0.587
viability (Duvelisib; 1 µM): 0.475
viability (Selinexor; 0.008 µM): 0.832
viability (Selinexor; 0.04 µM): 0.762
viability (Selinexor; 0.2 µM): 0.706
viability (Selinexor; 1 µM): 0.561
viability (Selinexor; 5 µM): 0.387
viability ([2]; 0.008 µM): 0.782
viability ([2]; 0.04 µM): 0.686
viability ([2]; 0.2 µM): 0.469
viability ([2]; 1 µM): 0.307
viability ([2]; 5 µM): 0.269
viability (Thalidomide; 0.032 µM): 0.913
viability (Thalidomide; 0.16 µM): 0.974
viability (Thalidomide; 0.8 µM): 0.95
viability (Thalidomide; 4 µM): 0.97
viability (Thalidomide; 20 µM): 0.961

primary CLL patient cells (S043)
viability (Palbociclib; 0.024 µM): 0.981
viability (Palbociclib; 0.12 µM): 0.959
viability (Palbociclib; 0.6 µM): 0.876
viability (Palbociclib; 3 µM): 0.722
viability (Palbociclib; 15 µM): 0.421
viability (SGC 0946; 0.024 µM): 0.87
viability (SGC 0946; 0.12 µM): 0.88
viability (SGC 0946; 0.6 µM): 0.877
viability (SGC 0946; 3 µM): 0.872
viability (SGC 0946; 15 µM): 0.756
viability (Venetoclax; 0.00064 µM): 1.04
viability (Venetoclax; 0.0032 µM): 0.927
viability (Venetoclax; 0.016 µM): 0.917
viability (Venetoclax; 0.08 µM): 0.81
viability (Venetoclax; 0.4 µM): 0.648
viability (Navitoclax; 0.0032 µM): 1.05
viability (Navitoclax; 0.016 µM): 0.991
viability (Navitoclax; 0.08 µM): 0.989
viability (Navitoclax; 0.4 µM): 0.85
viability (Navitoclax; 2 µM): 0.666
viability (EPZ-6438; 0.024 µM): 1.05
viability (EPZ-6438; 0.12 µM): 0.982
viability (EPZ-6438; 0.6 µM): 0.926
viability (EPZ-6438; 3 µM): 0.963
viability (EPZ-6438; 15 µM): 0.899
viability (CPI-169; 0.024 µM): 0.895
viability (CPI-169; 0.12 µM): 0.903
viability (CPI-169; 0.6 µM): 0.877
viability (CPI-169; 3 µM): 0.915
viability (CPI-169; 15 µM): 0.915
viability (Roscovitine; 0.032 µM): 0.869
viability (Roscovitine; 0.16 µM): 0.972
viability (Roscovitine; 0.8 µM): 0.952
viability (Roscovitine; 4 µM): 1.08
viability (Roscovitine; 20 µM): 0.901
viability ([1]; 0.024 µM): 0.742
viability ([1]; 0.12 µM): 0.789
viability ([1]; 0.6 µM): 0.832
viability ([1]; 3 µM): 0.847
viability ([1]; 15 µM): 0.868
viability (Etoposide; 0.032 µM): 1.12
viability (Etoposide; 0.16 µM): 1.02
viability (Etoposide; 0.8 µM): 0.987
viability (Etoposide; 4 µM): 1.01
viability (Etoposide; 20 µM): 0.813
viability (Tofacitinib; 0.024 µM): 0.937
viability (Tofacitinib; 0.12 µM): 0.965
viability (Tofacitinib; 0.6 µM): 0.961
viability (Tofacitinib; 3 µM): 0.969
viability (Tofacitinib; 15 µM): 1.14
viability (Duvelisib; 0.0016 µM): 0.768
viability (Duvelisib; 0.008 µM): 0.759
viability (Duvelisib; 0.04 µM): 0.704
viability (Duvelisib; 0.2 µM): 0.739
viability (Duvelisib; 1 µM): 0.677
viability (Selinexor; 0.008 µM): 0.788
viability (Selinexor; 0.04 µM): 0.746
viability (Selinexor; 0.2 µM): 0.713
viability (Selinexor; 1 µM): 0.595
viability (Selinexor; 5 µM): 0.54
viability ([2]; 0.008 µM): 0.757
viability ([2]; 0.04 µM): 0.734
viability ([2]; 0.2 µM): 0.683
viability ([2]; 1 µM): 0.661
viability ([2]; 5 µM): 0.629
viability (Thalidomide; 0.032 µM): 0.893
viability (Thalidomide; 0.16 µM): 0.892
viability (Thalidomide; 0.8 µM): 0.892
viability (Thalidomide; 4 µM): 0.939
viability (Thalidomide; 20 µM): 0.945
